Measurements from patent US11390621B2, “Chiral indole compounds and their use” (ARIAGEN, INC., priority 2019, dated 2022).

Experiments:
Type in all cases: in vivo
A20 = A20 syngeneic mouse tumor model, ARI-164 / anti-PD-1 / combination (Example 49)
Experimental: (§1) In this example, the in vivo anti-tumor efficacy of a combination of ARI-164 with an anti-PD-1 antibody was evaluated using a panel of seven subcutaneous syngeneic mouse tumor models.
(§2) Seven subcutaneous syngeneic mouse tumor models were generated by innoculating female BALB/C or C57BL/6 mice with cancer cells at their right lower or right front flank followed by randomization as detailed in Table 10 below.
(§3) A solution of a rat monoclonal anti-mouse PD-1 antibody (isotype IgG2a, κ) at a concentration of 6.61 mg/ml was obtained from BioXcell (InVivoMAb anti-mouse PD-1 (CD279), Clone RMP1-14, Cat #BE0146)) and store at 4° C. The antibody solution was diluted with PBS to obtain a 1 mg/ml dosing solution.
(§4) ARI-164 powder was stored at −20° C. The powder of the compound was dissolved in DMSO to obtain dosing solutions at 26.7 mg/ml for administration to mice at 40 mg/kg, respectively.
(§5) Seven studies using the seven subcutaneous syngeneic mouse tumor models were performed. In each study, 80 mice were enrolled and randomly allocated to eight different study groups, with 10 mice in each study group. The mean tumor size at randomization was approximately 80-120 mm^3 (around 100 mm^3). Randomization was performed based on “Matched distribution” randomization method (StudyDirector™ software, version 3.1.399.19). […]
(§6) The data was collected and analyzed as described above in Example 48.

EMT-6 = EMT-6 syngeneic mouse tumor model, ARI-164 / anti-PD-1 / combination (Example 49); conditions: EMT-6 model
Experimental: as §1, §2, §3, §4, §5, §6

Pan02 = Pan02 syngeneic mouse tumor model, ARI-164 / anti-PD-1 / combination (Example 49)
Experimental: as §1, §2, §3, §4, §5, §6

LL/2 = LL/2 syngeneic mouse tumor model, ARI-164 / anti-PD-1 / combination (Example 49)
Experimental: as §1, §2, §3, §4, §5, §6

MC38 = MC38 syngeneic mouse tumor model, ARI-164 / anti-PD-1 / combination (Example 49)
Experimental: as §1, §2, §3, §4, §5, §6

[1] = intraperitoneal, anti-PD-1 10 mg/kg BIW, ARI-164 40 mg/kg QD

## CC[C@H](O)c1csc(C(=O)c2c[nH]c3cc(F)ccc23)n1 [ARI-164, (S)-(6-Fluoro-1H-indol-3-yl)(4-(1-hydroxypropyl)thiazol-2-yl)methanone]
A20; combination with anti-PD-1 antibody, study day 28
  tumor inhibition (in words): significant tumor inhibition
A20; [1]
  TGI (%): 28.1%
EMT-6; combination with anti-PD-1 antibody, study day 30
  tumor inhibition (in words): significant tumor inhibition
EMT-6; [1]
  TGI (%): 57.2%
Pan02; combination with anti-PD-1 antibody, study day 55
  tumor inhibition (in words): increased tumor inhibition
Pan02; [1]
  TGI (%): 61.1%
LL/2; LL/2 model (FIG. 21F), combination with anti-PD-1 antibody, study day 32
  tumor inhibition (in words): tumor inhibition
LL/2; LL/2 model, intraperitoneal, anti-PD-1 10 mg/kg BIW, ARI-164 40 mg/kg QD
  TGI (%): 42.5%
MC38; combination with anti-PD-1 antibody, study day 27
  tumor inhibition (in words): significant tumor inhibition
MC38; intraperitoneal, anti-PD-1 10 mg/kg BIW, ARI-164 160 mg/kg QD
  TGI (%): 18.8%
